Experimental data reported in patent US9227956B2 (Pfizer Inc., priority 2013, dated 2016).

Key:
human PCSK9 [1] = assay: Cell Free PCSK9 Assay (PCSK9-luciferase RNA translated in HeLa cell lysate); format: biochemical; conditions: 30° C. for 45 minutes, luciferase readout, top concentration 100 μM
Protocol: In order to eliminate the permeability barrier inherent to the WT7 and SCHH cell-based assays a cell-free system was also established to access compound activity. […] The construct was then in-vitro transcribed using the MEGAscript T7 Kit (Life Technologies) and RNA subsequently purified incorporating the MEGAclear Kit (Life Technologies) according to manufacturer's protocols. […] Growth was in a 50 L wavebag at a rocker speed of 25 rpm and angle 6.1 with 5% CO2 and 0.2 LPM flow rate with cells harvested at a density of 2-2.5e6/ml. Lysates additionally contained 1 tablet of Roche cOmplete-EDTA protease inhibitors per 50 ml with tris(2-carboxyethyl)phosphine (Biovectra) substituted for dithiothreitol, and were clarified by an additional final centrifugation at 10,000 rpm in a Sorvall SS34 rotor at 4° C. for 10 minutes. Compound screening was performed in 384-well plates in an eleven point, 0.5 log dilution format at a top test compound concentration of 100 μM in a final volume of 0.5% DMSO. […] Upon assay completion 1 μL from each reaction solution was removed and transferred to a second 384-well Optiplate (Perkin Elmer) containing 24 μL of SteadyGlo (Promega) and signal intensity was measured on the Envision (Perkin Elmer) using the enhanced luminescence protocol. […] The test compound data were converted into percent effect, using the ZPE and HPE controls as 0% and 100% activity, respectively, applying Equation 1 above. IC50 was then calculated and reported as the midpoint in the percent effect curve in molar units and the values are reported under the Cell Free PCSK9 IC50 (μM) column header within Table 1 Biological Data.

human PCSK9 [2] = assay: PCSK9 AlphaLISA assay, PCSK9 lowering in WT7 cells; conditions: WT7 cells (Huh7 stably over-expressing human PCSK9); secreted PCSK9 by AlphaLISA; overnight incubation (16-24 h); top concentration 20 μM; read-out: Cell Based PCSK9 IC50
Excerpt: An in-vitro AlphaLISA assay (Perkin Elmer) was developed in order to quantitate the level of PCSK9 secreted into the cell culture media following compound treatment. To detect and measure PCSK9 protein an in-house generated anti-PCSK9 antibody was coupled to AlphaLISA acceptor beads by an external vendor (PerkinElmer) and a second internally developed anti-PCSK9 antibody with an epiptope distinct from that of the acceptor beads was biotinylated in house. Streptavidin coated-donor beads (Perkin Elmer) are also included in the assay mixture which then binds the biotinylated anti-PCSK9 antibody and in the presence of PCSK9 this donor complex and acceptor beads are brought into close proximity. […] The ability of compound to modulate PCSK9 protein levels in conditioned media by AlphaLISA was assessed in the human hepatocellular carcinoma cell line Huh7, stably over-expressing human PCSK9. […] Following plasmid transfection the stable WT7 clone was identified and maintained under Zeocin selection. Compound screening was performed in 384-well plates where WT7 cells were plated at a density of 7500 cells per well in 20 μL of tissue culture media containing compound in an eleven point, 0.5 log dilution format at a high treatment concentration of 20 μM in a final volume of 0.5% DMSO. In additional to these test compound conditions each screening plate also included wells that contained 20 μM puromycin as a positive assay control defined as high percent effect, HPE, as well as wells containing media in 0.5% DMSO as a negative treatment control defined as zero percent effect, ZPE. After overnight compound incubation (16-24 h) the tissue culture media was collected and an aliquot from each sample was transferred to individual wells of a 384-well white Optiplate (Perkin Elmer). The coupled antibodies and donor beads were added to the assay plates in a buffer composed of 30 mM Tris pH 7.4, 0.02% Tween-20 and 0.02% Casein. Anti-PCSK9 acceptor beads (final concentration of 10 μg/mL) and anti-PCSK9 biotinylated antibody (final concentration of 3 nM) were added and incubated for 30 minutes at room temperature followed by the addition of the streptavidin donor beads (final concentration 40 μg/mL) for an additional 60 minutes. Additionally a standard curve was generated where AlphaLISA reagents were incubated in wells spiked with recombinant human PCSK9 diluted in tissue culture media from 5000 ng/mL to 0.6 ng/mL. […] The test compound data were converted into percent effect, using the ZPE and HPE controls as 0% and 100% activity, respectively. The equation used for converting each well reading into percent effect was:
[formula] IC50 was then calculated and reported as the midpoint in the percent effect curve in molar units and the values are reported under the Cell Based PCSK9 IC50 (μM) column header within Table 1 Biological Data. Additionally, to monitor the selectivity of compound response for PCSK9 the level of a second secreted protein, Transferrin, was measured from the same conditioned media treated with test compound by AlphaLISA. […] To detect and quantify effects on Transferrin 0.01 mL of the culture media was transferred to a 384-well white Optiplate and 0.01 mL of media was added to bring the volume to 0.02 ml. Anti-Transferrin acceptor beads were added to a final concentration of 10 μg/mL, biotinylated anti-Transferrin at 3 nM and streptavidin donor beads at 40 μg/mL. Percent effect and IC50 for Transferrin was computed in a similar manner as that described for PCSK9.

PCSK9 = PCSK9 lowering in sandwich culture human hepatocytes (SCHH); format: cell-based; conditions: maximum response versus vehicle
Protocol: Test compound in-vitro pharmacokinetic and pharmacodynamic relationships were measured in sandwich culture primary cryopreserved human hepatocytes. Within these studies SCHH cells (BD Biosciences IVT) were thawed at 37° C. then placed on ice, after which the cells were added to pre-warmed (37° C.) In VitroGRO-HT media and centrifuged at 50×g for 3 min. The cell pellet was re-suspended to 0.8×10^6 cells/mL in InVitroGRO-CP plating medium and cell viability determined by trypan blue exclusion. On day 1, hepatocyte suspensions were plated in BioCoat 96-well plates at a density of 80000 cells/well in a volume of 0.1 mL/well. After 18 to 24 hours of incubation at 37° C. in 5% CO2, cells were overlaid with ice-cold 0.25 mg/mL BD Matrigel Matrix Phenol Red-Free in incubation medium at 0.1 mL/well. Cultures were maintained at 37° C. in 5% CO2 in InVitroGRO-HI (FBS-free media), which was replaced every 24 hours and time course treatments were initiated on day 5. Prior to compound treatment cell plates were washed 3 times with 0.1 mL/well InVitroGRO-HI and 0.09 mL of media was added back in preparation for the compound additions. 1 uL of either DMSO or compound DMSO stocks at 30 mM, 10 mM, 3 mM and 1 mM were stamped into 96 well V bottom polypropylene plates. 0.099 mL of media was added to the compound plate and mixed thoroughly before the addition of 0.010 mL from the interim compound plate to the cell plate. […] At the indicated time, 0.08 mL of media was removed from the cell plates and frozen for subsequent analysis of secreted PCSK9 by AlphaLISA and for determination of drug levels in the media by liquid chromatography-tandem mass spectrometry (LC-MS/MS). The remaining media was then aspirated and the cell layers were washed 3× with ice cold Hanks Balanced Salt Solution (HBSS) under shaking conditions to remove the matrigel overlay and plates were then stored at −20° C. for subsequent determination of drug levels in the cells by LC-MS/MS. AlphaLISA determination of PCSK9 protein levels within the conditioned media was performed ultilizing the identical reagents and detection protocols described above for the WT7 cells.

For `Cc1cccnc1N(C(=O)c1ccc(-c2cnn(C)c2-c2nnn(C(C)OC(=O)C(C)C)n2)cc1)[C@@H]1CCCNC1` (single isomer, unassigned) [Example 51], the IC50 (human PCSK9 [1]) was 3.56 µM, the IC50 (human PCSK9 [2]) was greater than 20 µM and the “Sandwich Culture Hepatocyte (SCHH) PCSK9 Lowering” value (PCSK9; at 6 h at 30 uM) was 48% at 6 h at 30 uM.

In the case of `CCC(OC(=O)C(C)C)n1nnc(-c2c(-c3ccc(C(=O)N(c4ncccc4C)[C@@H]4CCCNC4)cc3)cnn2C)n1` (single isomer, unassigned) [Example 52], the IC50 (human PCSK9 [1]) is reported as 10.7 µM, the IC50 (human PCSK9 [2]) is reported as greater than 20 µM and the “Sandwich Culture Hepatocyte (SCHH) PCSK9 Lowering” value (PCSK9; at 6 h at 30 uM) is reported as 25% at 6 h at 30 uM.

With `CCC(OC(=O)C(C)C)n1nnc(-c2c(-c3ccc(C(=O)N(c4ncccc4C)[C@@H]4CCCNC4)cc3)cnn2C)n1` (single isomer, unassigned) [Example 53] the IC50 (human PCSK9 [1]) was 31.8 µM, the IC50 (human PCSK9 [2]) was greater than 20 µM and the “Sandwich Culture Hepatocyte (SCHH) PCSK9 Lowering” value (PCSK9; at 6 h at 30 uM) was 0% at 6 h at 30 uM.

`Cc1cccnc1N(C(=O)c1ccc(-c2cnn(C)c2-c2nnn(C(OC(=O)C(C)C)C(C)C)n2)cc1)[C@@H]1CCCNC1` (single isomer, unassigned) [Example 54] was tested, and the IC50 (human PCSK9 [1]) was 12.8 µM, the IC50 (human PCSK9 [2]) was greater than 20 µM and the “Sandwich Culture Hepatocyte (SCHH) PCSK9 Lowering” value (PCSK9; at 6 h at 30 uM) was 29% at 6 h at 30 uM.

For `Cc1cccnc1N(C(=O)c1ccc(-c2cnn(C)c2-c2nnn(C(OC(=O)C(C)C)C(C)C)n2)cc1)[C@@H]1CCCNC1` (single isomer, unassigned) [Example 55], the IC50 (human PCSK9 [1]) was 19.8 µM, the IC50 (human PCSK9 [2]) was greater than 19.2 µM and the “Sandwich Culture Hepatocyte (SCHH) PCSK9 Lowering” value (PCSK9; at 6 h at 30 uM) was 40% at 6 h at 30 uM.

For `Cc1cccnc1N(C(=O)c1ccc(-c2cnn3cccnc23)cc1)[C@@H]1CCCNC1` [Example 1, N-(3-methylpyridin-2-yl)-N-[(3R)-piperidin-3-yl]-4-(pyrazolo[1,5-a]pyrimidin-3-yl)benzamide], the IC50 (human PCSK9 [1]) was 0.44 µM, the IC50 (human PCSK9 [2]) was 3.2 µM and the “Sandwich Culture Hepatocyte (SCHH) PCSK9 Lowering” value (PCSK9; at 8 h at 30 μM) was 74% at 8 h at 30 μM.

With `CCOC(=O)OC(C)OC(=O)c1c(-c2ccc(C(=O)N(c3ncccc3Cl)[C@@H]3CCCNC3)cc2)cnn1C` (stereo partly drawn) [Example 8, 1-[(ethoxycarbonyl)oxy]ethyl 4-(4-{(3-chloropyridin-2-yl)[(3R)-piperidin-3-yl]carbamoyl}phenyl)-1-methyl-1H-pyrazole-5-carboxylate] the IC50 (human PCSK9 [1]) was 3.7 µM, the IC50 (human PCSK9 [2]) was 9.5 µM and the “Sandwich Culture Hepatocyte (SCHH) PCSK9 Lowering” value (PCSK9; at 8 h at 30 μM) was 70% at 8 h at 30 μM.

`COC(=O)c1c(-c2ccc(C(=O)N(c3ncccc3Cl)[C@@H]3CCCNC3)cc2)cnn1C` [Example 10, Methyl 4-(4-{(3-chloropyridin-2-yl)[(3R)-piperidin-3-yl]carbamoyl}phenyl)-1-methyl-1H-pyrazole-5-carboxylate] was tested, and the IC50 (human PCSK9 [1]) was 0.64 µM, the IC50 (human PCSK9 [2]) was 1.5 µM and the “Sandwich Culture Hepatocyte (SCHH) PCSK9 Lowering” value (PCSK9; at 8 h at 30 μM) was 87% at 8 h at 30 μM.

`Cn1ncc(-c2ccc(C(=O)N(c3nccc4ccn(C)c34)[C@@H]3CCCNC3)cc2)c1C(=O)O` [Example 12, 1-methyl-4-(4-{(1-methyl-1H-pyrrolo[2,3-c]pyridin-7-yl)[(3R)-piperidin-3-yl]carbamoyl}phenyl)-1H-pyrazole-5-carboxylic acid] was tested, and the IC50 (human PCSK9 [1]) was 1.7 µM, the IC50 (human PCSK9 [2]) was greater than 20 µM and the “Sandwich Culture Hepatocyte (SCHH) PCSK9 Lowering” value (PCSK9; at 8 h at 30 μM) was 36% at 8 h at 30 μM.

`COC(=O)c1c(-c2ccc(C(=O)N(c3ncccc3C)[C@@H]3CCCNC3)cc2)cnn1C` [Example 13, Methyl 1-methyl-4-(4-{(3-methylpyridin-2-yl)[(3R)-piperidin-3-yl]carbamoyl}phenyl)-1H-pyrazole-5-carboxylate] was tested, and the IC50 (human PCSK9 [1]) was 0.8 µM, the IC50 (human PCSK9 [2]) was 2.3 µM and the “Sandwich Culture Hepatocyte (SCHH) PCSK9 Lowering” value (PCSK9; at 8 h at 30 μM) was 83% at 8 h at 30 μM.

`CCOC(=O)O[C@@H](C)OC(=O)c1c(-c2ccc(C(=O)N(c3ncccc3Cl)[C@@H]3CCCNC3)cc2)cnn1C` [Example 15a, (1S)-1-[(ethoxycarbonyl)oxy]ethyl 4-(4-{(3-chloropyridin-2-yl)[(3R)-piperidin-3-yl]carbamoyl}phenyl)-1-methyl-1H-pyrazole-5-carboxylate] was tested, and the IC50 (human PCSK9 [1]) was 3.1 µM, the IC50 (human PCSK9 [2]) was 7.3 µM and the “Sandwich Culture Hepatocyte (SCHH) PCSK9 Lowering” value (PCSK9; at 8 h at 30 μM) was 72% at 8 h at 30 μM.
